According to patent US10786580B2, “Cholecystokinin 2 receptor targeted NIR imaging and use thereof” (On Target Laboratories, LLC, priority 2016, dated 2020):
Where two headings read alike, the source gives them in different places.

Experiments:
[1] = system: HEK-CCK2 cells; test: Epi-fluorescence microscopy of binding to CCK2R expressing HEK cells; format: cell-based, human; details: FIGS. 14c & d
Protocol: (§1) HEK-CCK2 cells (a human embryonic kidney cells transfected with CCK2 receptor) were a kind gift from Dr. Mark Hellmich (University of Texas Medical Branch, Galveston, Tex.) and grown as a monolayer using Dulbecco's Modified Eagles Medium (GIBCO) (Gibco, NY) 10% heat-inactivated fetal bovine serum (Atlanta Biological, GA) and 1% penicillin streptomycin (Gibco, NY) in a 5% carbon dioxide: 95% air-humidified atmosphere at 37° C. for at least six passages before they were used for the assays.

[2] = target: T1, CCK2R (Homo sapiens, UniProt P32239); test: In vitro binding of CCK2R-NIR compounds to HEK-CCK2R cells (cell bound fluorescence); design: expressed in transfected cells; host or cells: HEK (human embryonic kidney) cells, HEK-CCK2R, gift from Dr. Mark Hellmich (UTMB); details: for Kd: 1 h at 37° C.
T1 sequence (P32239 1-447): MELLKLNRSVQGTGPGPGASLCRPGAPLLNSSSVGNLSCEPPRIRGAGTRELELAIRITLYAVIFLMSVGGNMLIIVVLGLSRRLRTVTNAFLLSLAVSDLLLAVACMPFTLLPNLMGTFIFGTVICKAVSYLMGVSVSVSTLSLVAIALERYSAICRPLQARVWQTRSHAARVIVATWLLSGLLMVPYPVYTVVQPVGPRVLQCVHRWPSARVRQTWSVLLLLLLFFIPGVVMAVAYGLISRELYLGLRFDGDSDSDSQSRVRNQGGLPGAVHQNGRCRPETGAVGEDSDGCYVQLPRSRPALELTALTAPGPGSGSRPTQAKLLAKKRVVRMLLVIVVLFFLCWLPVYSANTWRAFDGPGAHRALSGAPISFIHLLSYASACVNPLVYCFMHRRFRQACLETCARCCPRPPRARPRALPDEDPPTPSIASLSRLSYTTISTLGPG
Protocol: (§2) FIG. 4 depicts the binding affinities of CCK2R-NIR compounds 21, 42-44 to CCK2R. CCK2R-positive HEK-CCK2R cancer cells were incubated for 1 h at 37° C. with increasing concentrations of compounds. Media was then removed, washed with fresh media three times, and replaced with PBS. Cell bound fluorescence was assayed as using fluorometer.
CCK2R-positive HEK-CCK2R cancer cells were incubated for 1 h at 37° C. with increasing concentrations of compounds. Media was then removed, washed with fresh media three times, and replaced with PBS. Cell bound fluorescence was assayed as using fluorometer.
as §2, with “13 illustrates” for “4 depicts”, “affinity” for “affinities”, “of” for “of CCK2R-NIR”, “[…]” for “21, 42-44”, “compound 21.” for “compounds.”
as §1
HEK cells that overexpress CCK2 were seeded into a T75 flask and allowed to form a monolayer over 48 h. After trypsin digestion, release cells were transferred into centrifuge tubes (1×10^6 cells/tube) and centrifuged. The medium was replaced with fresh medium containing increasing concentration of requisite CCK2R-Ligand-NIR dye compound in the presence or absence of 100-fold excess the ligand, a high affinity CCK2 receptor antagonist, and incubated for 1 h at 37° C. After rinsing with fresh medium (2×1.0 mL) and PBS (1×1.0 mL), cells were resuspended in PBS (1.0 mL) and cell bound fluorescence was analyzed (100,000 cells/sample) using a fluorometer (Cary, Agilent). The relative binding affinities were calculated using a plot of % cell bound fluorescence versus the log concentration of the test article using GraphPad Prism 4.

[3] = Excitation and emission spectra; format: physicochemical; details: FIG. 12
Text: FIG. 12 depicts the chemical structure, excitation and emission spectra of compound 21 (OTL81).

[4] = system: HEK-CCK2R tumor xenograft; test: Whole-body imaging and ex vivo tissue biodistribution in mice bearing HEK-CCK2R tumor xenografts
Protocol: (§3) FIG. 2A illustrates the overlay of whole body fluorescence image over white light images after adjusting the threshold for compound 40. HEK-CCK2R tumor xenograft bearing mice were injected with 10 nmol of compound 1 and imaged with IVIS imager (ex=745 nm, em=ICG, exposure time=1 s) at 2 h post-injection. After imaging, selected tissues were harvested, and tissues were imaged with IVIS imager (ex=745 nm, em=ICG, exposure time=1 s).
as §3, with “FIG. 2C depicts” for “FIG. 2A illustrates”, “compound 41.” for “compound 40.”, “[…]” for “compound 1”
as §3, with “FIG. 5A” for “FIG. 2A”, “the analysis of compound 21” for “the”, “the threshold.” for “the threshold for compound 40.”, “of 21” for “of compound 1”
FIG. 9 depicts a head-to-head comparison of fluorescence in the tumors from the mice injected with CCK2R-targeted-NIR dye compounds 21, 40-44. Overlay of tumor fluorescence image over white light images. HEK-CCK2R tumor xenograft bearing mice were injected with 10 nmol of requisite compound and imaged with IVIS imager at 2 h post-injection. After imaging, tumor tissues were harvested, and imaged with IVIS imager (ex=745 nm, em=ICG, exposure time=1 s).
FIG. 14E depicts the in vivo efficacy and specificity of 21 by whole-body imaging with nude mice bearing HEK-CCK2R tumors.
FIG. 14F depicts the ex vivo tissue biodistribution of mice of FIG. 14E dissecting after whole-body imaging.
Athymic female nude (nu/nu) mice (5 weeks old, 18-20 g) were purchased from Envigo (Indianapolis, Ind.) and maintained on normal rodent diet (Teklad, Wis.). Animals were housed 5/cage in a barrier, pathogen-free cloaked rack. Autoclaved tap water and food were given as needed. The animals were housed in a sterile environment on a standard 12 hour light-dark cycle for the duration of the study. […]
six-weeks-old female nu/nu mice were inoculated subcutaneously with HEK-CCK2 cells (5.0×10^6/mouse in 50% high concentrated matrigel in GIBCO medium) on the shoulder. Growth of the tumors was measured in perpendicular directions every 2 days using a caliper (body weights were monitored on the same schedule), and the volumes of the tumors were calculated as 0.5×L×W^2 (L=longest axis and W=axis perpendicular to L in millimeters). […]

[5] = FIG. 14, mice bearing HEK-CCK2R tumor xenografts

Kd ([2]; FIG. 13, HEK-CCK2R cells, read-out: dissociation constant (KD)): 1 nM
Kd ([2]; Table 1, CCK2R-positive HEK-CCK2R cancer cells, read-out: KD): 0.67 nM
affinity for CCK2R (in words) ([2]; in vitro binding affinity data, HEK-CCK2R cells): very high affinity
Structure (SMILES): CC(C)(C)C(=O)CN1C(=O)[C@H](NC(=O)Nc2cccc(C(=O)N[C@H](CCC(=O)N[C@@H](Cc3ccc(OC4=C(/C=C/C5=[N+](CCCCS(=O)(=O)[O-])c6ccc(S(=O)(=O)O)cc6C5(C)C)CCC/C4=C\C=C4\N(CCCCS(=O)(=O)O)c5ccc(S(=O)(=O)O)cc5C4(C)C)cc3)C(=O)O)C(=O)O)c2)CN(C2CCCCC2)c2ccccc21 [Compound 21, 4-(2-((E)-2-((E)-2-(4-((S)-2-carboxy-2-((R)-4-carboxy-4-(3-(3-((R)-5-cyclohexyl-1-(3,3-dimethyl-2-oxobutyl)-2-oxo-2,3,4,5-tetrahydro-1H-benzo[b][1,4]diazepin-3-yl)ureido)benzamido)butanamido)ethyl)phenoxy)-3-(2-((E)-3,3-dimethyl-5-sulfo-1-(4-sulfobutyl)indolin-2-ylidene)ethylidene)cyclohex-1-en-1-yl)vinyl)-3,3-dimethyl-5-sulfo-3H-indol-1-ium-1-yl)butane-1-sulfonate]
labelling of HEK-CCK2 cells [1]: efficiently label
Stokes shift [3]: 20 nm
emission wavelength [3]: 796 nm
excitation wavelength [3]: 776 nm
fluorescence intensity in the tumors ([4]; 10 nmol, 2 h post-injection): very high fluorescence intensity
tumor uptake, head-to-head comparison ([4]; FIG. 9, 10 nmol, 2 h post-injection, compounds 21, 40-44): highest tumor uptake
tissue uptake (whole-body imaging and ex vivo biodistribution) [4, 5]: solely taken up in CCK2R positive tumors with no accumulation in other tissues
tumor-to-background ratio [4, 5]: very high
